By IC50 is commonly meant the concentration at which inhibition is half-maximal.

One assay relates to HD-MB03 flank xenograft. In words: Subcutaneous flank xenograft, IVIS, H&E and Ki67 IHC. The class given is in vivo, mice. The protocol:
In parallel to these experiments, subcutaneous flank xenografts were engrafted into two cohorts of mice, which were treated with the vehicle or R2. […] To investigate the pharmacokinetics of BAY in vivo, its concentration in plasma and brain tissues of healthy mice was directly quantified using an LC-MS approach. BAY was detected in both brains and plasma of mice undergoing treatment, however the plasma concentrations exceeded those of the brain by approximately 10-fold (FIG. 5H-I). To determine whether treatment with BAY affects de novo pyrimidine biosynthesis in vivo, changes in pyrimidine metabolism were measured in the brain in comparison to tumor tissues from the flank (FIG. 5J-K). Although BAY treatment impacted de novo pyrimidine metabolism in vivo in both brain and tumor tissues, with a similar pattern observed in vitro (FIG. 4A), the effect size was stronger in peripheral tumor tissue in comparison to brain tissue. Such findings further reflect the limited capacity for BAY to accumulate within the brain.
To examine histological consequences of DHODH inhibition in vivo, the xenografts from the flanks of BAY- and vehicle-treated mice were surgically resected one day after administering the final dose.
FFPE tissues were sectioned onto slides and then deparaffinized prior to analysis. Samples were stained with H&E for histological examination. In parallel, sections were blocked in 5% BSA (anti-Ki67, anti-4E-BP1 Thr37/46, anti-DHODH) or 5% NGS (anti-EGR1) and stained with primary antibody at 4° C. overnight. […]
PDOX were generated by engrafting 25,000 tumor cells (both SU_MB002 and HD-MB03 cell lines), suspended in 5 μL PBS, directly into the mouse cerebrum. […] Tumor area was manually measured in H&E-stained sections of FFPE tissues using ImageJ.
For imaging via the in vivo imaging system (IVIS), mice were sedated with isoflurane gas and then administered luciferin substrate (150 mg/kg in PBS) via subcutaneous injection. After 10 minutes, bioluminescent signal (photons per second; p/s) was quantified using Living Image software.

Another assay deals with D458. Nature of the assay: PrestoBlue cell viability, 72-hour treatment, limiting dilution. The assay is classed as cell-based. The conditions noted are these: Homo sapiens, read-out: BAY2402234 IC50; D458, G3MB-MYC. The protocol:
(§1) SU_MB002, NSC194, NSC197 and NSC201FT, MBT375 and MED411FHTC were maintained in Neurocult Complete (NCC) media (Stem Cell Technologies; catalogue #05751). D425 and D458 were maintained in Dulbecco's […] (DMEM) containing 10% fetal bovine serum (FBS). HD-MB03 were maintained in NCC containing 10% FBS. All cell lines were conditioned in NCC for a minimum of 48 hours before experimentation. SU_MB002 and HD-MB03 G3MB-MYC PDOX were obtained from collaborators as kind gifts and are frequently passaged in vivo. SU_MB002, a treatment-refractory group 3 MB acquired at autopsy was received from Dr. Yoon-Jae Cho. Dr. Till Milde provided HD-MB03, a treatment-naïve group 3 MBs. ICB1299 group 4 MB cells were obtained as a gift from Silvia Marino's laboratory^62. MBT375 was established in-house from a surgical specimen of group 4 MB, which was engrafted in the cerebellum of mice for serial propagation. Nanostring genotyping was used to confirm group 4 medulloblastoma identity. MED411FHTC PDOX were procured from Dr. Olson's brain tumor research lab. D425 and D458 were obtained from the ATCC. All cell lines were fingerprint verified by short tandem repeat (STR) profiling. NSC194, NSC197 and NSC201FT were derived in-house from donor fetal brain tissues^63.
(§2) For assessment of viability, cells were seeded into 96-well plates at a density of 1,000 cells per well. Viability was measured by adding PrestoBlue™ diluted 1:10 (ThermoFisher Scientific; Catalogue #A13261) followed by a 4-hour incubation. Relative fluorescence intensity was determined via background correction. To assess tumorsphere forming capacity, cells were seeded at a low density (200 cells per well) and incubated for 3-5 days. Tumorspheres were manually counted thereafter.

The subject of another assay is D425. The assay is described as above. The class given is cell-based. The conditions noted are these: Homo sapiens, read-out: BAY2402234 IC50; D425, G3MB-MYC. As for the experimental part:
as §1, §2

In the next assay the test system is MED411-FHTC. The assay is described as above. The assay is classed as cell-based. Conditions: Homo sapiens, read-out: BAY2402234 IC50, G3MB-MYC. The protocol: as §1, §2
Another assay deals with HD-MB03. The assay is described as above. The class given is cell-based. Conditions: Homo sapiens, read-out: BAY2402234 IC50; HD-MB03, G3MB-MYC. As for the experimental part: as §1, §2

Turning to `CCn1c(CO)nn(-c2cc(O[C@@H](C)C(F)(F)F)c(C(=O)Nc3c(F)cccc3Cl)cc2F)c1=O` [BAY2402234], the “antitumoral response of flank tumors compared to orthotopic xenografts” value in the assay with HD-MB03 flank xenograft (HD-MB03 flank, R2) was “much stronger antitumoral response”. For the same compound, in the assay with HD-MB03 flank xenograft (flank xenografts resected one day after final dose, vs vehicle), the “tumor cell density (H&E)” value is listed as “remarkably reduced”. The “Ki67 expression (IHC) in surviving tumor cells” value in the assay with HD-MB03 flank xenograft (residual flank xenograft tissues) was “reduction in Ki67 expression”. The IC50 with D458 worked out at 0.26 nM; with D425, 0.494 nM; in the assay on MED411-FHTC, 0.626 nM; in the assay with HD-MB03, 0.243 nM.

For the origin of these results see patent US20250152559A1, “METHODS FOR TREATING MYC-AMPLIFIED CANCER” (The Governing Council of the University of Toronto, priority 2023, published 2025).
